# Reference: patent US7183094B2, “Bacterial mycothiol S-conjugate amidase family” (The Regents of the University of California, priority 1999, dated 2007)
# Tests used:
# [1] = target: T1, purified M. smegmatis mycothiol S-conjugate amidase (Mycolicibacterium smegmatis, UniProt A0R2W9); experiment: Substrate specificity of purified mycothiol S-conjugate amidase (GlcN-Ins production); type: biochemical, Mycobacterium smegmatis; conditions: for Activity: GlcN-Ins production from 0.1 mM substrate by 0.022 μg purified amidase at 30 C; for Relative Activity (%): relative to MSmB taken as 100%, 0.1 mM substrate
# T1 sequence (A0R2W9 whole entry): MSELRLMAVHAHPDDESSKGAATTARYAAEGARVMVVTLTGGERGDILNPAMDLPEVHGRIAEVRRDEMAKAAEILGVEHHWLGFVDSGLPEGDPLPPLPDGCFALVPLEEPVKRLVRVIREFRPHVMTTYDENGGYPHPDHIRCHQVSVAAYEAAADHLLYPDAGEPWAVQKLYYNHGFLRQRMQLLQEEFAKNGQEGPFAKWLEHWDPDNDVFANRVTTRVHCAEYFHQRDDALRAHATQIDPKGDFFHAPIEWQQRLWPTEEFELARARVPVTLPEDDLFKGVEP
# Experimental: The specificity of the amidase for substrate was assessed by measuring the production of GlcN-Ins in most cases. A sample (5 μL) of 1 mM substrate was mixed with 40 μL of 3 mM 2-mercaptoethanol, 25 mM HEPES chloride, pH 7.5. The reaction was initiated with 5 μL of purified amidase (50-fold diluted stock, 4.4 μg ml^−1). Triplicate samples were quenched at 0, 10, and 30 min by mixing each sample with 50 μL of acetonitrile containing 5 mM NEM and incubating at 60 C for 10 min. After cooling on ice, the samples were clarified by centrifugation for 15 min at 14000 g. […]
# [2] = target: T1, purified M. smegmatis mycothiol S-conjugate amidase
# Experimental: In vitro Enzymatic assays. […] Separation of the various modified thiols was performed by high-pressure liquid chromatography (HPLC). A sample (2–10 μL) of extract was mixed with 40 μL of 30 μM MSmB in 3 mM 2-mercaptoethanol, 25 mM N-2-hydroxyethylpiperazine-N′-2-ethanesulfonic acid (HEPES) chloride pH 7.5 and reacted […] at 30° C. before quenching the reaction with 50 μL of 40 mM methanesulfonic acid on ice. The mixture was centrifuged for 3 min at 14,000×g in a microcentrifuge at room temperature and the supernatant analyzed by HPLC without dilution. A shortened version (45 min) of HPLC method 1 of Fahey and Newton (R. C. Fahey, et al. (1987) Methods Enzymol. 143:85–96) was used for separation of MSmB and AcCySmB.
# [3] = target: mycothiol S-conjugate amidase in partially purified M. smegmatis cell extract (Mycolicibacterium smegmatis, UniProt A0R2W9); conditions: for product yielded from 1.0 equivalent of MSmB (0.1 nmol): 4 determinations at >50% conversion
# Sequence of mycothiol S-conjugate amidase in partially purified M. smegmatis cell extract (A0R2W9 whole entry): as above
# Experimental: The experiment was repeated using a partially purified cell extract and samples of the incubation mixture were analyzed at intervals for the other potential product of MSmB cleavage, GlcN-Ins, as well as for MSmB and AcCySmB.
# A preparation of the mycothiol S-conjugate amidase (30–50% saturated ammonium sulfate fraction chromatographed on Sephadex G-75) was used to study the stoichiometry of the reaction. Reaction was initiated by mixing a sample (9 μL, 7 μg total protein) of the preparation of the enzyme with 0.9 mL of 50 mM sodium phosphate, pH 7.5 containing 100 μM MSmB.
# For determination of bimane derivatives of thiols, a sample (70 μL) of reaction mixture was removed, mixed with 4 μL 5 M methanesulfonic acid, and analyzed by HPLC without dilution.
# For analysis of GlcN-Ins, a sample (2–8 μL) of the reaction mixture was mixed with enough 1M HEPES chloride pH 8 to bring the volume to 10 μl and then with 5 μL acetonitrile and 5 μL of 10 mM AccQ-Fluor reagent (6-aminoquinolyl-N-hydroxysuccinimidyl carbamate, Waters). The mixtures were incubated for 1 min at room temperature followed by 10 min at 60° C., diluted with 60 μL of water, and quantified by HPLC as previously described (S. J. Anderberg, et al. (1998) supra.).
# [4] = target: M. tuberculosis mycothiol S-conjugate amidase (Rv1082) (Mycobacterium tuberculosis, UniProt P9WJN1); experiment: Amidase activity of recombinant Rv1082 protein expressed in E. coli; type: biochemical, Mycobacterium tuberculosis H37Rv; conditions: for amidase activity: 0.1 mM (100 μM) substrate, extracts of IPTG-induced cells
# Sequence of M. tuberculosis mycothiol S-conjugate amidase (Rv1082) (P9WJN1 whole entry, looked up): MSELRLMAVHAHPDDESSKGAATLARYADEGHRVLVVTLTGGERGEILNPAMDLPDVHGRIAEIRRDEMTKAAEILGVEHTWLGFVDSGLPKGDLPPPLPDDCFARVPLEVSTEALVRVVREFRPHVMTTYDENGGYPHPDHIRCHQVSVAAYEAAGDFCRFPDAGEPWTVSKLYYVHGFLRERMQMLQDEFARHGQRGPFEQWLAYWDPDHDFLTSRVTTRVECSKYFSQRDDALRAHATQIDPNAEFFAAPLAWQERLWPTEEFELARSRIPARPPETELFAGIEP
# Experimental: Purification and renaturation of mycothiol S-conjugate amidase from inclusion bodies. The approach taken involved solublization of the inclusion bodies in a highly concentrated urea and DTT solution followed by […] Cells were cultured in Luria Bertani broth containing 100 μg/mL ampicillin at 37° C. to OD600=0.8 when isopropyl-β-D-thiogalactopyranoside added to 0.4 mM and the culture was shaken overnight at 25° C. Cells were pelleted by centrifugation for 10 min at 5000 g and 4° C., sonicated in 5 volumes of assay buffer on ice, and centrifuged for 5 min at 14000 g at room temperature. About 85% of the amidase activity, using MSmB as substrate, was associated with the pellet fraction which was resuspended and incubated with periodic vortexing for 1 h at 37° C. in 8 M urea containing 20 mM DTT. The suspension was centrifuged for 3 min at 14000 g and the supernatant dialyzed against 100 volumes of 25 mM HEPES chloride pH 7.5 containing 1 mM glutathione disulfide and 2 mM glutathione for 15 h, and then against 100 volumes of 25 mM HEPES chloride pH 7.5 containing 3 mM 2-mercaptoethanol for 4 h. After centrifugation, the supernatant contained soluble amidase activity and was assayed with 0.1 mM mycothiol and 0.1 mM MSmB as described above.
# Alkylation of MSH with mBBr produces the fluorescent S-conjugate, MSmB, which can be quantitated by HPLC with fluorescence detection (Newton et al. 1995; Newton et al. 1996). E coli has no mycothiol metabolism and is not expected to contain mycothiol conjugate amidase endogenous proteins that would give background to these assays.
# Functional and Comparative analysis of mycothiol S-conjugate amidase. […] When these extracts were assayed with 0.1 mM mycothiol as substrate, <0.002 nmol/min/mg amidase activity was observed. […] (Table 2).
# [5] = target: M. smegmatis mycothiol S-conjugate amidase (Mycolicibacterium smegmatis, UniProt A0R2W9); experiment: Inhibition of amidase cleavage of MSmB; type: biochemical, Mycobacterium smegmatis; conditions: 100 μM MSmB as substrate, n=2
# Sequence of M. smegmatis mycothiol S-conjugate amidase (A0R2W9 whole entry): as the sequence (A0R2W9 whole entry) above
# Experimental: Tests were also conducted to determine whether mycothiol inhibits the cleavage of 100 μM MSmB by invention S-conjugate amidase. The amidase activity was decreased by 30±3, 48±3, and 89±3% (n=2) at 1, 3, and 10 mM mycothiol, respectively.
# Preparation of Mycothiol S-conjugates. Mycothiol S-conjugates were prepared by reaction of excess electrophile with mycothiol followed by removal or reaction of excess electrophile. Stock solutions (100 mM) of electrophile were prepared in acetonitrile (NEM, iodoacetamide; Sigma) or in dimethylsulfoxide [7-diethylamino-3-(4′-maleimidylphenyl)-4-methylcoumarin (CPM, Molecular Probes), 3-(N-maleimidopropionyl)biocytin (MPB, Sigma)]. Reaction with these electrophiles at 2 mM in 25 mM *HEPES chloride pH 7.5 was initiated by addition of mycothiol to 1 mM from a 32 mM stock solution in H2O (pH˜3) and was allowed to proceed 15 min in the dark. Excess reagent was removed by extracting 3 times with an equal volume of H2O-saturated dichloromethane. A cerulenin (Sigma) stock solution (100 mM in acetonitrile) was diluted 5-fold in 25 mM HEPES chloride pH 7.5, reacted 15 min with 1 mM mycothiol, and extracted 5 times with H2O-saturated dichloromethane. Prior to extraction a 1 μL aliquot was withdrawn for reaction with mBBr and analysis of residual mycothiol by HPLC. […] Stock solutions (50 mM) of p-sulfobenzoyloxybromobimane (sBBr) and monobromotrimethylammoniobimane (qBBr) were prepared in 50% aqueous dimethylsulfoxide and diluted to 2 mM for reaction with 1 mM mycothiol in 25 mM HEPES chloride pH 7.5 for 15 min. Since these charged electrophiles cannot be extracted with dichloromethane, reaction was terminated with excess (1.1 mM) 2-mercaptoethanol.
# [6] = tested on: M. smegmatis mutant blocked in mycothiol production; conditions: Newton et al. (1999); cited from earlier work
# [7] = tested on: M. smegmatis mc^2155 cells; experiment: M. smegmatis culture treated with mBBr: fate of mycothiol-related compounds and growth; type: cell-based, Mycobacterium smegmatis
# Experimental: Since mBBr is known to penetrate cells rapidly and to convert intracellular thiols to their bimane derivatives (Newton, et al. (1995) supra.), the fate of mycothiol in M. smegmatis cells treated with mBBr was examined to ascertain whether the reaction shown in FIG. 1C occurs in vivo. A logarithmic phase culture of M. smegmatis was cooled on ice to ˜3° C. to reduce enzymatic reactions prior to reaction with 0.5 mM mBBr. Excess reagent was reacted with 2-mercaptoethanol and the cells were pelleted, washed, and resuspended in a small amount of ice cold medium. The cells were diluted with prewarmed medium and replaced in the shaking incubator at 37° C. (time, t=0). Samples were removed and analyzed for intracellular and extracellular mycothiol related compounds over a 4 h interval (FIG. 3).
# A logarithmic phase culture of M. smegmatis was cooled on ice to ˜3° C. to reduce enzymatic reactions prior to reaction with 0.5 mM mBBr. Excess reagent was reacted with 2-mercaptoethanol and the cells were pelleted, washed, and resuspended in a small amount of ice cold medium. The cells were diluted with prewarmed medium and replaced in the shaking incubator at 37° C. (time, t=0). Samples were removed and analyzed for intracellular and extracellular mycothiol related compounds over a 4 h interval (FIG. 3).
# At t=0, […] per 100 mL (3.5 μmol per g RDW) of AcCySmB was present in the cells and […] per 100 mL was found in the medium. Within 5 min the cellular AcCySmB level had fallen to […] per 100 mL and the medium level increased to 220 nmol per 100 mL. Subsequent analyses found essentially all of the AcCySmB in the medium at a level of 225–230 nmol per 100 mL, accounting for 80–90% of the original cellular mycothiol content. No MSmB appears to be exported from cells as […] (<0.5%) was detected in the medium or the cell washes. A logarithmic phase culture (1 L) of M. smegmatis mc^2155 (OD600=1.2) in 7H9 Middlebrook medium was cooled on ice to 3° C. The iced culture was incubated with mBBr (0.5 mM from a 180 mM stock solution in acetonitrile) for 20 min; excess 2-mercaptoethanol (1.0 mM) was added, and the incubation continued on ice for an additional 10 min. The cells were pelleted by centrifugation and washed twice with 200 mL of sterile, ice-cold 7H9 Middlebrook medium to remove excess bimane derivative of 2-mercaptoethanol. The cells were resuspended in 50 mL of sterile ice cold medium and the experiment was initiated (t=0) by dilution into 950 mL of prewarmed (37° C.) 7H9 Middlebrook medium. The cell suspension was shaken in an incubator (225 rpm, 37° C.) and a “t=0” sample (100 mL) was removed from the culture within one min. […]
# [8] = 0.1 mM substrate, resolubilized crude protein extract
structure (smiles),measurement,setting,value
CC(=O)N[C@@H](CSCc1c(C)c(=O)n2c(=O)c(C)c(C)n12)C(=O)N[C@H]1[C@@H](OC2[C@H](O)[C@H](O)C(O)[C@H](O)[C@H]2O)O[C@H](CO)[C@@H](O)[C@@H]1O (some centres unmarked) [MSmB],Activity,[1],4480 ± 870 nmol/min/mg
same,Relative Activity (%),[1],(100) %
same,specific activity of pooled G-100 peak fractions,[2]; 30 μM MSmB as substrate,"~3,000 nmol/min-mg protein"
same,amidase reaction rate,"[2]; 30 μM MSmB, purified amidase",~3000 nmol/min/mg
same,Km,[2]; MSmB as substrate,95 ± 8 µM
same,kcat,[2]; MSmB as substrate,8 s⁻¹
same,conversion of MSmB,[3]; 60 min at 23° C.,97%
same,amidase activity,[4],4.1 nmol/min/mg
same,AcCysmB produced,[4]; [8],5.4±0.3 nmoles/min/mg protein
same,GlcN-Ins produced,[4]; [8],4.1±0.05 nmoles/min/mg protein
same,rate enhancement relative to mycothiol (free thiol),[4]; recombinant M. tuberculosis amidase,more than 2000 fold
CC(=O)N[C@@H](CSCc1c(C)c(=O)n2c(=O)c(C)c(C)n12)C(=O)O [AcCySmB],product yielded from 1.0 equivalent of MSmB (0.1 nmol),[3],1.00±0.02 equivalent
"N[C@H]1[C@@H](OC2[C@H](O)[C@H](O)C(O)[C@H](O)[C@H]2O)O[C@H](CO)[C@@H](O)[C@@H]1O (stereo partly drawn) [GlcN-Ins, 1-D-myo-inosityl-2-amino-2-deoxy-α-D-glucopyranoside]",product yielded from 1.0 equivalent of MSmB (0.1 nmol),[3],0.80±0.08 equivalent
"CC(=O)N[C@@H](CS)C(=O)N[C@H]1[C@@H](OC2[C@H](O)[C@H](O)C(O)[C@H](O)[C@H]2O)O[C@H](CO)[C@@H](O)[C@@H]1O (stereo partly drawn) [Mycothiol, 1-D-myo-inosityl-2-(N-acetylcysteinyl)amido-2-deoxy-α-D-glucopyranoside]",rate as % of the rate with 0.1 mM MSmB,[1]; 2 mM mycothiol,0.3%
same,rate of GlcN-Ins formation,"[1]; 2 mM mycothiol, conditions otherwise as for Table 2",14 ± 1 nmol/min/mg
same,Activity,[1],4 ± 1 nmol/min/mg
same,Relative Activity (%),[1],0.1%
same,decrease of amidase activity,[5]; 1 mM mycothiol,30±3%
same,decrease of amidase activity,[5]; 3 mM mycothiol,48±3%
same,decrease of amidase activity,[5]; 10 mM mycothiol,89±3%
same,amidase activity,[4],< 0.002 nmol/min/mg
same,GlcN-Ins produced,[4]; [8],< 0.0023 nmoles/min/mg protein
CO[C@H]1/C=C/O[C@@]2(C)Oc3c(C)c(O)c4c(O)c(c(/C=N/N5CCN(C)CC5)c(O)c4c3C2=O)NC(=O)/C(C)=C\C=C\[C@H](C)[C@H](O)[C@@H](C)[C@@H](O)[C@@H](C)[C@H](OC(C)=O)[C@@H]1C [rifampin],increased sensitivity of the mutant,[6],20 fold
"Cc1c(C)n2c(CBr)c(C)c(=O)n2c1=O [mBBr, monobromobimane]",A600,[7]; 8.5 h at 37 C after mBBr treatment,1.6
same,final A600,[7]; 30 h at 37 C after mBBr treatment,~2.6
same,initial decrease of A600 value,[7]; during the 4 h incubation after 0.5 mM mBBr treatment,~15%
same,A600 value recovered,"[7]; within the 4 h incubation, equals initial value",1.2
CC(=O)N[C@@H](CSSC[C@H](NC(C)=O)C(=O)N[C@H]1[C@@H](OC2[C@H](O)[C@H](O)C(O)[C@H](O)[C@H]2O)O[C@H](CO)[C@@H](O)[C@@H]1O)C(=O)N[C@H]1[C@@H](OC2[C@H](O)[C@H](O)C(O)[C@H](O)[C@H]2O)O[C@H](CO)[C@@H](O)[C@@H]1O (some centres unmarked) [Mycothiol disulfide],Activity,[1],25 ± 1 nmol/min/mg
same,Relative Activity (%),[1],0.6%
